# Source: US20240287052A1, “NOVEL OXAZOLE DERIVATIVE AND PHARMACEUTICAL COMPOSITION FOR PREVENTING OR TREATING ALLERGIC DISEASES COMPRISING THE SAME” (AZCURIS CO., LTD., priority 2021, published 2024)
# Where two headings read alike, the source gives them in different places.
# Target: T1, IL33 and ST2 binding (Homo sapiens, UniProt O95760)
# T1 sequence (O95760 112-270 limits assumed): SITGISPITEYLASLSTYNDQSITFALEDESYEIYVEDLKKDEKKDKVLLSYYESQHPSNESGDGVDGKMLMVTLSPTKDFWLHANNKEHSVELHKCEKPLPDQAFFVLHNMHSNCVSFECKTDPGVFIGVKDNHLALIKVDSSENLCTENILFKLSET
# 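Note: plate ELISA with coated Flag-tagged human IL-33 and His-tagged human ST2, bound ST2 detected by anti-His HRP and TMB absorbance at 450 nm, 2 h compound incubation.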
Structure (SMILES),inhibition (30 µM) [%],inhibition (100 µM) [%]
"CN1CCN(CCNC(=O)c2nc(-c3ccc(Cl)cc3)oc2-c2ccccc2[N+](=O)[O-])CC1 [Compound 247, 2-(4-Chlorophenyl)-N-(2-(4-methylpiperazin-1-yl)ethyl)-5-(2-nitrophenyl)oxazole-4-carboxamide]",8,32
"CN1CCN(CCNC(=O)c2nc(-c3ccc(C#N)cc3)oc2-c2ccccc2)CC1 [Compound 250, 2-(4-Cyanophenyl)-N-(2-(4-methylpiperazin-1-yl)ethyl)-5-phenyloxazole-4-carboxamide]",14,9
"CN(C)CCNC(=O)c1nc(-c2ccc(C#N)cc2)oc1-c1ccccc1[N+](=O)[O-] [Compound 251, 2-(4-Cyanophenyl)-N-(2-(dimethylamino)ethyl)-5-(2-nitrophenyl)oxazole-4-carboxamide]",-6,-21
"CN1CCN(CCNC(=O)c2nc(-c3ccc(C#N)cc3)oc2-c2ccccc2[N+](=O)[O-])CC1 [Compound 252, 2-(4-Cyanophenyl)-N-(2-(4-methylpiperazin-1-yl)ethyl)-5-(2-nitrophenyl)oxazole-4-carboxamide]",28,19
"CN(C)CCNC(=O)c1nc(-c2ccc(-c3ccccc3)cc2)oc1-c1ccccc1 [Compound 253, 2-([1,1′-Biphenyl]-4-yl)-N-(2-(dimethylamino)ethyl)-5-phenyloxazole-4-carboxamide]",11,60
"CN1CCN(CCNC(=O)c2nc(-c3ccc(-c4ccccc4)cc3)oc2-c2ccccc2)CC1 [Compound 254, 2-([1,1′-Biphenyl]-4-yl)-N-(2-(4-methylpiperazin-1-yl)ethyl)-5-phenyloxazole-4-carboxamide]",-20,11
"CN(C)CCNC(=O)c1nc(-c2ccc(-c3ccccc3)cc2)oc1-c1ccccc1[N+](=O)[O-] [Compound 255, 2-([1,1′-Biphenyl]-4-yl)-N-(2-(dimethylamino)ethyl)-5-(2-nitrophenyl)oxazole-4-carboxamide]",-10,1
"CN1CCN(CCNC(=O)c2nc(-c3ccc(-c4ccccc4)cc3)oc2-c2ccccc2[N+](=O)[O-])CC1 [Compound 256, 2-([1,1′-Biphenyl]-4-yl)-N-(2-(4-methylpiperazin-1-yl)ethyl)-5-(2-nitrophenyl)oxazole-4-carboxamide]",3,49
"CN(C)CCNC(=O)c1nc(-c2ccc3ccccc3c2)oc1-c1ccccc1 [Compound 257, N-(2-(Dimethylamino)ethyl)-2-(naphthalen-2-yl)-5-phenyloxazole-4-carboxamide]",6,1
"CN1CCN(CCNC(=O)c2nc(-c3ccc4ccccc4c3)oc2-c2ccccc2)CC1 [Compound 258, N-(2-(4-Methylpiperazin-1-yl)ethyl)-2-(naphthalen-2-yl)-5-phenyloxazole-4-carboxamide]",35,49
"CN(C)CCNC(=O)c1nc(-c2ccc3ccccc3c2)oc1-c1ccccc1[N+](=O)[O-] [Compound 259, N-(2-(Dimethylamino)ethyl)-2-(naphthalen-2-yl)-5-(2-nitrophenyl)oxazole-4-carboxamide]",6,1
"CN1CCN(CCNC(=O)c2nc(-c3ccc4ccccc4c3)oc2-c2ccccc2[N+](=O)[O-])CC1 [Compound 260, N-(2-(4-Methylpiperazin-1-yl)ethyl)-2-(naphthalen-2-yl)-5-(2-nitrophenyl)oxazole-4-carboxamide]",9,23
"CN(C)CCNC(=O)c1nc(-c2ccc(N(C)C)cc2)oc1-c1ccccc1 [Compound 261, N-(2-(Dimethylamino)ethyl)-2-(4-(dimethylamino)phenyl)-5-phenyloxazole-4-carboxamide]",3,8
"CN1CCN(CCNC(=O)c2nc(-c3ccc(N(C)C)cc3)oc2-c2ccccc2)CC1 [Compound 262, 2-(4-(Dimethylamino)phenyl)-N-(2-(4-methylpiperazin-1-yl)ethyl)-5-phenyloxazole-4-carboxamide]",14,33
"CN(C)CCNC(=O)c1nc(-c2ccc(N(C)C)cc2)oc1-c1ccccc1[N+](=O)[O-] [Compound 263, N-(2-(Dimethylamino)ethyl)-2-(4-(dimethylamino)phenyl)-5-(2-nitrophenyl)oxazole-4-carboxamide]",-35,-10
"CN1CCN(CCNC(=O)c2nc(-c3ccc([N+](=O)[O-])cc3)oc2-c2ccccc2[N+](=O)[O-])CC1 [Compound 278, N-(2-(4-Methylpiperazin-1-yl)ethyl)-5-(2-nitrophenyl)-2-(4-nitrophenyl)oxazole-4-carboxamide]",46,47

# Second part, the molecule after the results:
inhibition (30 µM) [%],inhibition (100 µM) [%],Structure (SMILES)
29,35,"CN1CCN(CCNC(=O)c2nc(-c3ccc(N(C)C)cc3)oc2-c2ccccc2[N+](=O)[O-])CC1 [Compound 264, 2-(4-(Dimethylamino)phenyl)-N-(2-(4-methylpiperazin-1-yl)ethyl)-5-(2-nitrophenyl)oxazole-4-carboxamide]"
5,14,"CN(C)CCNC(=O)c1nc(-c2ccc(C(C)(C)C)cc2)oc1-c1ccccc1 [Compound 265, 2-(4-(tert-Butyl)phenyl)-N-(2-(dimethylamino)ethyl)-5-phenyloxazole-4-carboxamide]"
-29,10,"CN1CCN(CCNC(=O)c2nc(-c3ccc(C(C)(C)C)cc3)oc2-c2ccccc2)CC1 [Compound 266, 2-(4-(tert-butyl)phenyl)-N-(2-(4-methylpiperazin-1-yl)ethyl)-5-phenyloxazole-4-carboxamide]"
23,29,"CCN(CC)CCNC(=O)c1nc(-c2ccc(C(C)(C)C)cc2)oc1-c1ccccc1 [Compound 267, 2-(4-(tert-butyl)phenyl)-N-(2-(diethylamino)ethyl)-5-phenyloxazole-4-carboxamide]"
-15,-6,"CN(C)CCNC(=O)c1nc(-c2ccc(C(C)(C)C)cc2)oc1-c1ccccc1[N+](=O)[O-] [Compound 268, 2-(4-(tert-Butyl)phenyl)-N-(2-(dimethylamino)ethyl)-5-(2-nitrophenyl)oxazole-4-carboxamide]"
33,44,"CN1CCN(CCNC(=O)c2nc(-c3ccc(C(C)(C)C)cc3)oc2-c2ccccc2[N+](=O)[O-])CC1 [Compound 269, 2-(4-(tert-Butyl)phenyl)-N-(2-(4-methylpiperazin-1-yl)ethyl)-5-(2-nitrophenyl)oxazole-4-carboxamide]"
20,37,"CCN(CC)CCNC(=O)c1nc(-c2ccc(C(C)(C)C)cc2)oc1-c1ccccc1[N+](=O)[O-] [Compound 270, 2-(4-(tert-Butyl)phenyl)-N-(2-(diethylamino)ethyl)-5-(2-nitrophenyl)oxazole-4-carboxamide]"
-25,-18,"CSc1ccc(-c2nc(C(=O)NCCN(C)C)c(-c3ccccc3[N+](=O)[O-])o2)cc1 [Compound 273, N-(2-(Dimethylamino)ethyl)-2-(4-(methylthio)phenyl)-5-(2-nitrophenyl)oxazole-4-carboxamide]"
18,20,"CSc1ccc(-c2nc(C(=O)NCCN3CCN(C)CC3)c(-c3ccccc3[N+](=O)[O-])o2)cc1 [Compound 274, N-(2-(4-Methylpiperazin-1-yl)ethyl)-2-(4-(methylthio)phenyl)-5-(2-nitrophenyl)oxazole-4-carboxamide]"
-16,-28,"CN(C)CCNC(=O)c1nc(-c2ccc([N+](=O)[O-])cc2)oc1-c1ccccc1 [Compound 275, N-(2-(Dimethylamino)ethyl)-2-(4-nitrophenyl)-5-phenyloxazole-4-carboxamide]"
2,-23,"CN1CCN(CCNC(=O)c2nc(-c3ccc([N+](=O)[O-])cc3)oc2-c2ccccc2)CC1 [Compound 276, N-(2-(4-Methylpiperazin-1-yl)ethyl)-2-(4-nitrophenyl)-5-phenyloxazole-4-carboxamide]"
16,4,"CN(C)CCNC(=O)c1nc(-c2ccc(C3CC3)cc2)oc1-c1ccccc1 [Compound 279, 2-(4-Cyclopropylphenyl)-N-(2-(dimethylamino)ethyl)-5-phenyloxazole-4-carboxamide]"
2,0,"CN1CCN(CCNC(=O)c2nc(-c3ccc(C4CC4)cc3)oc2-c2ccccc2)CC1 [Compound 280, 2-(4-Cyclopropylphenyl)-N-(2-(4-Methylpiperazin-1-yl)ethyl)-5-phenyloxazole-4-carboxamide]"
73,71,"O=C(NCCN1CCNCC1)c1nc(-c2ccc(C(F)(F)F)cc2)oc1-c1ccccc1[N+](=O)[O-] [Compound 281, 5-(2-nitrophenyl)-N-(2-(piperazin-1-yl)ethyl)-2-(4-(trifluoromethyl)phenyl)oxazole-4-carboxamide]"
31,49,"O=C(NCCN1CCNCC1)c1nc(-c2cc(F)cc(F)c2)oc1-c1ccccc1[N+](=O)[O-] [Compound 283, 2-(3,5-Difluorophenyl)-5-(2-nitrophenyl)-N-(2-(piperazin-1-yl)ethyl)oxazole-4-carboxamide]"
18,33,"CC(=O)N1CCN(CCNC(=O)c2nc(-c3cc(F)cc(F)c3)oc2-c2ccccc2[N+](=O)[O-])CC1 [Compound 286, N-(2-(4-Acetylpiperazin-1-yl)ethyl)-2-(3,5-difluorophenyl)-5-(2-nitrophenyl)oxazole-4-carboxamide]"
41,46,"CS(=O)(=O)N1CCN(CCNC(=O)c2nc(-c3ccc(C(F)(F)F)cc3)oc2-c2ccccc2[N+](=O)[O-])CC1 [Compound 287, N-(2-(4-(methylsulfonyl)piperazin-1-yl)ethyl)-5-(2-nitrophenyl)-2-(4-(trifluoromethyl)phenyl)oxazole-4-carboxamide]"
